The record followed here is article PMC8805605, “Discovery of Dimeric Arylsulfonamides as Potent ADAM8 Inhibitors” (ACS Medicinal Chemistry Letters, 2021).

The IC50 is the concentration needed to halve the response being measured.

The target in the assay is T1, human recombinant ADAM8 (Homo sapiens, UniProt P78325).
T1 construct: kind gift of Franka Scharfenberg, University of Kiel
T1 sequence (P78325 17-824): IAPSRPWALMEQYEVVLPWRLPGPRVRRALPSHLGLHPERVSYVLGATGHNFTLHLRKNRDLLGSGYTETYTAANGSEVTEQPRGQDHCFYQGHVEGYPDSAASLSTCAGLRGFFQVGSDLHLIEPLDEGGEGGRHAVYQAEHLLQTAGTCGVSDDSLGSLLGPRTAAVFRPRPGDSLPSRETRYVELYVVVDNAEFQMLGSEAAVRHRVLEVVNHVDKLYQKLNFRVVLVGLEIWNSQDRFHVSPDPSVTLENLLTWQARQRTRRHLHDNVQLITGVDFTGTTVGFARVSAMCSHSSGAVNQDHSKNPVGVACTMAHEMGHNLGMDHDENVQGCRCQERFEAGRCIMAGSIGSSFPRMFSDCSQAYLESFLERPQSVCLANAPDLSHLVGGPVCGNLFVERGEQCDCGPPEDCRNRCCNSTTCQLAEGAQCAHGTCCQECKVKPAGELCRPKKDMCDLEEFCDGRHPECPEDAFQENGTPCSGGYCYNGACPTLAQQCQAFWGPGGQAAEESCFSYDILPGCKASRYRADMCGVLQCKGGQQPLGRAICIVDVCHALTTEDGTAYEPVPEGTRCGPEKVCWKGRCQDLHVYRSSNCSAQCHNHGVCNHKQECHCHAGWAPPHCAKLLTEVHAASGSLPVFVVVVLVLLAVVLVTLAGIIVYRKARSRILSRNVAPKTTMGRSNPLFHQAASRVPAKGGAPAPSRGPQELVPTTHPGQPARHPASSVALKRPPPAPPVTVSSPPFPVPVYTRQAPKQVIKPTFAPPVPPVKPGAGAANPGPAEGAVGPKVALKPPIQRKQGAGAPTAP
Kind of assay: ADAM8 fluorometric inhibition assay. The class given is biochemical. The note with it: for IC50: human recombinant enzyme, fluorometric assay, mean of three independent experiments in duplicate, read-out: In vitro inhibitory activity IC50 on ADAM8. As for the experimental part:
The newly synthesized bivalent derivatives 1–3 were then tested in vitro on human recombinant ADAM8 in comparison with JG26 by a fluorometric assay. The inhibitory activity against a panel of MMPs and ADAM10/17 was determined as well to assess their selectivity profile.
(RFU). Percent of inhibition was calculated from control reactions without the inhibitor. IC50 was determined using the formula: v i/v o = 1/(1 + [I]/ IC50), where v i is the initial velocity of substrate cleavage in the presence of the inhibitor at concentration [I] and v o is the initial velocity in the absence of the inhibitor. Results were analyzed using SoftMax Pro software (version 5.4.3, Molecular Devices, Sunnyvale, CA) and Prism Software version 5.0 (GraphPad Software, Inc., La Jolla, CA, USA).
ADAM8 and ADAM17 inhibition assays
Recombinant ADAM8 and ADAM17 (kind gift of Franka Scharfenberg, University of Kiel) were diluted in assay buffer (25 mM Tris HCl, pH 8.0. 6x10-4 % Brij, 10 mM CaCl2, 10 mM ZnCl2) to a working concentration of 250 ng and incubated with inhibitors for 45 min in a total volume of 50 µL.
The fluorescent substrate PepDAB1310 was added in a concentration of 10 µM (in a volume of 50 µL). […]

`O=C(NCCC[C@@H](NS(=O)(=O)c1ccc(OCc2cc(Br)cc(Br)c2)cc1)C(=O)NO)c1cccc(C(=O)NCCC[C@@H](NS(=O)(=O)c2ccc(OCc3cc(Br)cc(Br)c3)cc2)C(=O)NO)c1` [Compound 2]: the half-maximal inhibitory concentration (IC50) stood at 73 nM.
Regarding `O=C(NCCC[C@@H](NS(=O)(=O)c1ccc(OCc2cc(Br)cc(Br)c2)cc1)C(=O)NO)NCCC[C@@H](NS(=O)(=O)c1ccc(OCc2cc(Br)cc(Br)c2)cc1)C(=O)NO` [Compound 3], the IC50 came out at 567 nM. Further, the “Times less active than compound 1 on ADAM8” value (ratio of ADAM8 IC50 values) came to 14 times.
As for `NC(=O)NCCC[C@@H](NS(=O)(=O)c1ccc(OCc2cc(Br)cc(Br)c2)cc1)C(=O)NO` [JG26, reference compound], the IC50 was 12 nM.
In the case of `O=C(CCCNC(=O)c1cccc(C(=O)NCCCC(=O)NCCC[C@@H](NS(=O)(=O)c2ccc(OCc3cc(Br)cc(Br)c3)cc2)C(=O)NO)c1)NCCC[C@@H](NS(=O)(=O)c1ccc(OCc2cc(Br)cc(Br)c2)cc1)C(=O)NO` [Compound 1], the IC50 is 41 nM. The “Selectivity for ADAM8 over ADAM10” value (ratio of IC50 values ADAM10/ADAM8) was 740 fold.
